Patent US12508286B2, “Composition for treating spinal cord injury, comprising stem cells treated with novel compound” (YJ CERAPEUTICS INC., priority 2019, dated 2025)

Test system: MSCs
Experiment: Stem cell differentiation confirmed with neural lineage markers
Type: cell-based
Settings: MSCs cultured in a medium containing the compound for 5 days
Experimental: Referring to FIGS. 3 and 4, MSCs were cultured in a medium containing the compound for 5 days, and the differentiation status was confirmed using a neural lineage marker. As a result.
MSCs of passage 3 received from Kangstem Biotech were maintained in a KSB3 basal medium containing 10% FBS (Gibco) and supplements.
After passage 1, MSCs of passage 4 were stocked and stored in liquid nitrogen.
Referring to FIG. 1, MSCs of passage 5 were seeded at 1 mL per well in 12 wells diluted to 1.1×10^4/mL.
After 4 hours, the cells were treated with 40 μM of L1 or L3 or 30 μM of L2 (Formula 1).
After three days, the medium was changed with a new medium, and the cells were treated with the compound in the same manner and then additionally cultured for two days.

With `CCc1ccc(N(C(=O)COC)c2nc3cc(Cl)ccc3o2)cc1` [L2, N-(5-Chlorobenzo[d]oxazol-2-yl)-N-(4-ethylphenyl)-2-methoxyacetamide] the GFAP expression was “hardly expressed”, the Nestin expression was “hardly expressed” and the Tuj1-positive cells was at least 90%.
